The values that follow come from publication PMC7650794, “Pharmacological Modulation of Blood–Brain Barrier Permeability by Kinin Analogs in Normal and Pathologic Conditions” (Pharmaceuticals, 2020).

Data set [1] deals with T1, human B2R (Homo sapiens, UniProt P30411).
T1 construct: expressed in transfected cells; host or cells: QBI HEK 293A cells, lentiviral transduction with pCDH-BDKRB2, puromycin selection
T1 sequence (P30411 1-391): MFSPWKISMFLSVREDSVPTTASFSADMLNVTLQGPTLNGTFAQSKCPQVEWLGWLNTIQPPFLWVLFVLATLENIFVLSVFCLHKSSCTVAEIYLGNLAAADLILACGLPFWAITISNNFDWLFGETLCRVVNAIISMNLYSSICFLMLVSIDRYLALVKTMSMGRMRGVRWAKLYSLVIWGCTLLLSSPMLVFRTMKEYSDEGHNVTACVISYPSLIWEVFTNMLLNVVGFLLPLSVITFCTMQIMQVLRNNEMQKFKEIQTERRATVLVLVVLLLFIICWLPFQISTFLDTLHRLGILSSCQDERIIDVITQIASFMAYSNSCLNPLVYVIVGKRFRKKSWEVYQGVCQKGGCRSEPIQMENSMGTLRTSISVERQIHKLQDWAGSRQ
Nature of the data set: IP-One accumulation assay, human B2R-HEK293 cells. The conditions noted are these: for EC50: IP1 accumulation, 30 min, room temperature, pH 7.4, 50 mM LiCl, human B2R-HEK293, 15,000 cells per well, mean of two independent experiments performed in duplicates, read-out: IP1 Assays (EC50; nM). It is filed as cell-based. As for the experimental part:
The IP-One assay was performed on living, adherent human B2R-HEK293 cells according to the manufacturer’s recommendations (Cisbio, #62IPAPEB, Bedford, MA, USA). […] IP1-d2 and anti-IP1-Cryptate were added for at least 1 h. Fluorescence signal was measured using a Tecan M1000 plate reader (excitation at 320 nm and emission at 620 and 665 nm). EC50 values were calculated by curve-fitting using GraphPad Prism 8.2.

Data set [2] concerns the target T1, human B2R. Nature of the data set: Radioligand displacement binding assay, [3H]BK, human B2R-HEK293 cells. The conditions noted are these: for IC50: displacement of 1 nM [3H]BK, living adherent HEK293 cells stably expressing human B2R, serum-free DMEM, 1.5 h, 4 °C, mean of two independent experiments performed in duplicates. Here is the method: The pCDH-BDKRB2 vector was produced from the plasmid pcDNA3.1/human BDKRB2 by PCR amplification using the primers 5′-[…]-3′ and 5′-[…]-3′, and introduced into pCDH-CMV-MCS-EF1 vector using BamHI et XbaI restriction sites. Lentiviruses were produced from pCDH-BDKRB2 vector in HEK293T cells using the X-tremeGENE HP transfection reagent (Millipore-Sigma, Oakville, ON, Canada). Lentiviruses were harvested 48 h post-transfection and used to infect QBI HEK 293A cells (ATCC). Transduced cells were selected using 5 µg/mL of puromycin (Thermo Fisher, Burlington, On, Canada).
Radioligand displacement binding assays were performed as we previously described, with slight modifications. HEK293 cells stably expressing human B2R were used for these assays (see text above). […] Radioactivity of samples was measured by a β-scintillation counter (PerkinElmer, Woodbridge, On, Canada). Binding affinities of peptides were expressed in terms of IC50 values—the molar concentration of an unlabeled agonist causing 50% displacement of specific binding (GraphPad Prism 8.2).

Another data set relates to GBM cells. Particulars: vs. temozolomide (TMZ); ref [33]; cited from earlier work.
A further data set concerns BBB / brain cancer. On the set-up: method as in PMID 22709590. The conditions noted are these: ref [33]; cited from earlier work.
For data set [3], the system named is BBB, irradiated mouse brain. Nature of the data set: DCE-MRI of BBB permeability to Gd-DTPA in irradiated mouse brain. In kind it is in vivo. The conditions noted are these: T1-weighted, 10 months after 45 Gy; Gd-DTPA alone or with NG291 50 µg/kg i.v. From the text: Female Balb/c mice were anesthetized using 1.5 L/min oxygen containing isoflurane (3% for induction, 2% for maintenance) and positioned on a custom-designed stereotactic bed compatible with the Leksell Gamma Knife Perfexion (Elekta AB, Stockholm, Sweden). A maximum dose of 45 Gy (23.1 Gy at the 50% isodose) was delivered through 4 mm collimators in the right hemisphere of the brain. Mouse and human brains have different sensitivities to radiation. This dose was selected because it allows the development and slow progression of radiation necrosis (approximatively appearing at 17 months post-irradiation in T2-weighted MRI; Figure 4), similar to what may be observed in brain cancer patients who received radiotherapy. After irradiation, mice were placed on a heating pad to recover, and were then returned to their cages.
For dynamic contrast-enhanced (DCE)-MRI imaging, pre-contrast T1-weighted imaging with an array of flip angles (α = 10°, 20°, 25°, 35°, 50°) was performed to acquire a T1 map with the following parameters: TR = 100 ms, TE = 2.79 ms, data matrix = 128 × 128, FOV = 20 × 20 mm^2; 1 average; 10 slices; 1 mm slice thickness. Then, a dynamic acquisition with the same parameters and a fixed angle at 30° was acquired before, during, and after injection of contrast agent. […]

Data set [4] deals with 4T1-luc mammary cancer cells, brain metastases in mice. Nature of the data set: 4T1-luc breast cancer brain metastasis model. In kind it is in vivo, mouse. Particulars: NG291 50 μg/kg over 5 min i.v., single dose, 18 days, 6–8 animals. As for the experimental part: Mice were anesthetized using 1.5 L/min oxygen-containing isoflurane (3% for induction, 2% for maintenance) and secured with tape in a supine position on a heating pad. A total of 1 × 10^5 4T1-Luc cells suspended in 100 µL of sterile saline was slowly injected into the left ventricle of the heart using a 1 mL Hamilton syringe mounted with a 30G needle as described previously. For BBB disruption experiments, a cannula was placed in the caudal vein and a single dose of NG291 (50 µg/kg/5 min) was infused into the caudal vein while simultaneously injecting the cancer cells intracardially. Successful intracardiac injection and tumor development was evaluated weekly by bioluminescence imaging. The development of brain metastatic tumor burden was determined by histological analysis.
Brain sections from mice inoculated with 4T1-Luc cells were stained with hematoxylin-eosin (H and E) for histological examination and metastases quantification using the NanoZoomer Digital Pathology software (Hamamatsu, NDP.view version 2.7.25). H and E staining was performed on brain sections every 20–30 µm. The relative total area and number of metastatic foci in the entire brain section were calculated from manual delineation of metastases in digital images of H and E-stained brain slides using the NanoZoomer NDP.view2 viewing software free hand tool. […] A total of 68 slices were analyzed.

A further data set has as its system normal mice. The data set is described as follows: Tolerability / blood pressure effect in anesthetized normal mice. It is filed as in vivo, mouse.
Data set [5] relates to angiotensin-converting enzyme (ACE, alias kininase II). The conditions noted are these: ref [26]; cited from earlier work.

Entries after “also recorded” stand apart in the source; their conditions may differ. Non-standard residues stand in square brackets, D forms with d. Residues, ends and D or L forms follow the SMILES beside them. Hyp = O=C(O)[C@@H]1C[C@@H](O)CN1; 2Thi = N[C@@H](Cc1cccs1)C(=O)O; Gly(N-cHex) = O=C(O)CNC1CCCCC1

`N=C(N)NCCC[C@@H](N)C(=O)N[C@@H](CCCNC(=N)N)C(=O)N1CCC[C@H]1C(=O)N1C[C@H](O)C[C@H]1C(=O)NCC(=O)N[C@H](C(=O)N[C@@H](CO)C(=O)N1[C@H](C(=O)N[C@H](C(=O)N[C@@H](CCCNC(=N)N)C(=O)O)C2Cc3ccccc3C2)C[C@@H]2CCCC[C@@H]21)C1Cc2ccccc2C1` [B9972, DArg[Hyp^3, Igl^5, Oic^7, Igl^8]-BK]: at human B2R [1], the concentration giving a half-maximal response (EC50) (usually the midpoint of the concentration-response curve) amounted to 158 nM. Also, the IC50 (in general, the concentration at which inhibition is half-maximal) at human B2R [2] stood at 199 nM.

For `COc1cccc2c1C(=O)c1c(O)c3c(c(O)c1C2=O)C[C@@](O)(C(=O)CO)C[C@@H]3O[C@H]1C[C@H](N)[C@H](O)[C@H](C)O1` [DOX, doxorubicin], the “potency for killing GBM cells in vitro” value in the data set with GBM cells was “more potent than temozolomide (TMZ) for killing GBM cells in vitro”. For the same compound, in the data set with BBB / brain cancer, the “BBB crossing and in vivo efficacy in brain cancer” value is “does not readily cross the BBB and so shows poor efficacy in in vivo models”.

`CNC[C@H](O)[C@@H](O)[C@H](O)[C@H](O)CO.CNC[C@H](O)[C@@H](O)[C@H](O)[C@H](O)CO.O=C([O-])CN(CCN(CC(=O)[O-])CC(=O)O)CCN(CC(=O)[O-])CC(=O)O.[Gd+3]` [Gd-DTPA]: in data set [3], the “contrast enhancement in the irradiated hemisphere” value is “Minimal contrast enhancement was observed in the irradiated hemisphere”.

Turning to `N=C(N)NCCC[C@H](NC(=O)[C@H](Cc1cccs1)NC(=O)CN(C(=O)[C@H](CO)NC(=O)[C@H](Cc1cccs1)NC(=O)CNC(=O)[C@@H]1C[C@@H](O)CN1C(=O)[C@@H]1CCCN1C(=O)[C@@H](N)CCCNC(=N)N)C1CCCCC1)C(=O)O` [NG291, [Hyp^3, Thi^5, ^NChg^7, Thi^8]-BK] (H-RP[Hyp]G[2Thi]S[Gly(N-cHex)][2Thi]R-OH), the EC50 on human B2R [1] was 0.9 nM. In data set [4], the “effect on brain tumor burden and number of metastases, in words” value was “did not significantly increase brain tumor burden; also recorded: no difference in terms of both area and number of metastases”. The hypotensive effect entry in the data set with normal mice (high dose i.v. NG291, ketamine/xylazine-anesthetized normal mice, strong but reversible, not shown) is listed as “about -35 mmHg”. For the same compound, in the data set on normal mice (high dose i.v. NG291, normal mice), the tolerability entry was “generally well-tolerated”. The compound further displayed an IC50 at human B2R [2] of 3 nM. For the same compound, in data set [5], the “protection against enzymatic degradation by ACE” value is on record as “fully protected against enzymatic degradation by the angiotensin-converting enzyme”.

On to `N=C(N)NCCC[C@@H](N)C(=O)N[C@H](Cc1ccccc1)C(=O)N1CCC[C@@H]1C(=O)N[C@H](CO)C(=O)N[C@H](Cc1ccccc1)C(=O)NCC(=O)N1CCC[C@@H]1C(=O)N1CCC[C@@H]1C(=O)N[C@H](CCCNC(=N)N)C(=O)O` [RI-BK, D(retroinverso)-BK] (H-[dR][dF][dP][dS][dF]G[dP][dP][dR]-OH; N-terminus and C-terminus assumed), for which, at human B2R [1] (IP1, HEK293 cells stably expressing human B2R), the “agonist activity/potency at human B2R, in words” value is “no binding affinity and agonist activity at human B2R”. Further, on human B2R [1], the EC50 is more than 10000 nM. The “binding affinity at human B2R, in words” value at human B2R [2] (HEK293 cells stably expressing human B2R) is “no binding affinity”. The compound also gave an IC50 on human B2R [2] of more than 10000 nM.
